Assay results reported in patent US10851064B2, “ACSS2 inhibitors and methods of use thereof” (METABOMED LTD., priority 2017, dated 2020).

These compounds were tested against ACSS2 (Homo sapiens, UniProt Q9NR19) (assay: biochemical).
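Also: Cell-free human ACSS2 enzyme reaction with acetate, CoA and ATP, 90 min at 37 C, coupled to pyrophosphatase, phosphate release detected by Biomol Green absorbance at 620 nm.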

Sequence of ACSS2 (Q9NR19 whole entry): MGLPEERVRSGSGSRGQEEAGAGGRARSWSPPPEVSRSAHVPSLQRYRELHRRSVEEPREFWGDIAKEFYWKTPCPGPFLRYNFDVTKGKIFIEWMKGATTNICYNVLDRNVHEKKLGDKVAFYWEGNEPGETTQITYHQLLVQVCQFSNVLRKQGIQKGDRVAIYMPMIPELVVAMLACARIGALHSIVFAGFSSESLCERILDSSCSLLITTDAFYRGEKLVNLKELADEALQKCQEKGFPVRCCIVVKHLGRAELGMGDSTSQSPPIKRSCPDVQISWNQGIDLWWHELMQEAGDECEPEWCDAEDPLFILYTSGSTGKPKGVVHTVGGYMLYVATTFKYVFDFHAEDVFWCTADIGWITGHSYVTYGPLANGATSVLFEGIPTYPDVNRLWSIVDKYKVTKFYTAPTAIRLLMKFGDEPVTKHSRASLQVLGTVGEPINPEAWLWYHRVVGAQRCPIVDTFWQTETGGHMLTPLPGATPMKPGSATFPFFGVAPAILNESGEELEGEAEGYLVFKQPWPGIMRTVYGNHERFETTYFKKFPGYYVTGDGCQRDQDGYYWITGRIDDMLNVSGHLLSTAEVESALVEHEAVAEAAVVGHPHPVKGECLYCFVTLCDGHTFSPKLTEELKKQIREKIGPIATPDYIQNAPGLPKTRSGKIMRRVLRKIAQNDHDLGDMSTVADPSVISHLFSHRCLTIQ

Row | SMILES | IC50
1 | CC1=NN(c2cccc(C#CCN)c2)C(=O)C1C(=O)Nc1cccc(C(C)(F)F)c1 (stereo not drawn) [compound 356] | 6 to 100 nM
2 | CC1=NN(c2ccccc2)C(=O)C1C(=O)Nc1ccc2c(c1)CCC2 (stereo not drawn) [compound 209, N-(2,3-dihydro-1H-inden-5-yl)-3-methyl-5-oxo-1-phenyl-4,5-dihydro-1H-pyrazole-4-carboxamide] | 100 to 1000 nM
3 | COc1ccc(N2N=C(C)C(C(=O)Nc3cccc(-c4ncco4)c3)C2=O)cc1 (stereo not drawn) [compound 256] | 6 to 100 nM
4 | COc1ccc(N2N=C(C)C(C(=O)Nc3ccccc3)C2=O)cc1 (stereo not drawn) [compound 197, 1-(4-methoxyphenyl)-3-methyl-5-oxo-N-phenyl-4,5-dihydro-1H-pyrazole-4-carboxamide] | 1000 to 100000 nM
5 | CC1=NN(c2ccccn2)C(=O)C1C(=O)Nc1ccccc1 (stereo not drawn) [compound 192, 5-hydroxy-3-methyl-N-phenyl-1-(pyridin-2-yl)-1H-pyrazole-4-carboxamide] | > 100000 nM
6 | CC1=NN(c2ccccc2)C(=O)C1C(=O)Nc1ccc(F)cc1 (stereo not drawn) [compound 189, N-(4-fluorophenyl)-3-methyl-5-oxo-1-phenyl-4,5-dihydro-1H-pyrazole-4-carboxamide] | 1000 to 100000 nM
7 | CC1=NN(c2ccccc2)C(=O)C1C(=O)Nc1ccc(S(=O)(=O)N(C)C)cc1 (stereo not drawn) [compound 105, N-(4-(N,N-dimethylsulfamoyl)phenyl)-3-methyl-5-oxo-1-phenyl-4,5-dihydro-1H-pyrazole-4-carboxamide] | 1000 to 100000 nM
8 | CC1=NN(c2cccnc2)C(=O)C1C(=O)Nc1ccccc1 (stereo not drawn) [compound 195, 3-methyl-5-oxo-N-phenyl-1-(pyridin-3-yl)-4,5-dihydro-1H-pyrazole-4-carboxamide] | > 100000 nM
9 | CCc1cccc(NC(=O)C2C(=O)N(c3ccccc3)N=C2c2ccccc2)c1 (stereo not drawn) [compound 126, N-(3-ethylphenyl)-5-oxo-1,3-diphenyl-4,5-dihydro-1H-pyrazole-4-carboxamide] | 1000 to 100000 nM
10 | CCc1ccc(NC(=O)C2C(=O)N(c3ccccc3)N=C2C)s1 (stereo not drawn) [compound 260] | 100 to 1000 nM
11 | CCc1cccc(NC(=O)C2C(=O)N(c3ccccc3)N=C2c2ccncc2)c1 (stereo not drawn) [compound 137, N-(3-ethylphenyl)-5-oxo-1-phenyl-3-(pyridin-4-yl)-4,5-dihydro-1H-pyrazole-4-carboxamide] | 1000 to 100000 nM

The remaining lines, values ahead:

Row | IC50 | SMILES
12 | 0.01 to 6 nM | CCC(F)(F)c1cccc(NC(=O)C2C(=O)N(c3ccc4ccn(C(C)C)c4c3)N=C2C)c1 (stereo not drawn) [compound 360]
13 | 0.01 to 6 nM | CC1=NN(c2cccc(C#CCNC(=O)COCCOCC(=O)Nc3cccc4c3C(=O)N(C3CCC(=O)NC3=O)C4=O)c2)C(=O)C1C(=O)Nc1cccc(C(C)(F)F)c1 (stereo not drawn) [compound 381]
14 | 100 to 1000 nM | COc1ccc(N2N=C(C)C(C(=O)NCc3ccccc3)C2=O)cc1 (stereo not drawn) [compound 358]
15 | 0.01 to 6 nM | CC1=NN(c2cc(-c3ccccc3)cc(-c3ccsc3)c2)C(=O)C1C(=O)Nc1cccc(C(C)(F)F)c1 (stereo not drawn) [compound 372]
16 | 1000 to 100000 nM | CC1=NN(c2ccccc2)C(=O)C1C(=O)Nc1ccc2[nH]cnc2c1 (stereo not drawn) [compound 278]
17 | 6 to 100 nM | CC1=NN(c2cc(-c3ccccc3)cc(-c3ccccc3)c2)C(=O)C1C(=O)Nc1cccc(C(C)(F)F)c1 (stereo not drawn) [compound 401]
18 | 0.01 to 6 nM | CC1=NN(c2cccc(Br)c2)C(=O)C1C(=O)Nc1cccc(C(C)(F)F)c1 (stereo not drawn) [compound 404]
19 | 6 to 100 nM | CC1=NN(c2cccc(CN)c2)C(=O)C1C(=O)Nc1cccc(C(C)(F)F)c1 (stereo not drawn) [compound 335]
20 | 100 to 1000 nM | CC1=NN(c2ccc(OC(F)F)cc2)C(=O)C1C(=O)Nc1ccc2[nH]ccc2c1 (stereo not drawn) [compound 347]
21 | 1000 to 100000 nM | CC1=NN(c2ccccc2)C(=O)C1C(=O)Nc1nccn1C (stereo not drawn) [compound 268]
22 | 6 to 100 nM | COc1ccc(N2N=C(C)C(C(=O)Nc3cccc(C(C)(F)F)c3)C2=O)cc1-c1ccc(-c2ccccc2)cc1 (stereo not drawn) [compound 396]
23 | 100 to 1000 nM | CCc1ccsc1NC(=O)C1C(=O)N(c2ccccc2)N=C1C (stereo not drawn) [compound 288]
24 | 100 to 1000 nM | CC1=NN(c2ccc(OC(F)F)cc2)C(=O)C1C(=O)N(C)c1cc(Cl)c(F)c(Cl)c1 (stereo not drawn) [compound 391]
